Results reported in ChEMBL document CHEMBL1201862, “PubChem BioAssay data set” (2004).
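Assay format: 96-well plates, 48-hour exposure. At the GI50, growth is halved.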 Active and inactive are the calls of the source. No stated cut-off is given here; in the data, active = GI50 up to about 1.1 µM and inactive = higher.

What was measured:
Assay in all cases: NCI tumour cell line growth inhibition, 48 h
[1] = test system: A549
[2] = test system: CCRF-CEM
[3] = test system: COLO 205
[4] = test system: EKVX
[5] = test system: HCT-15
[6] = test system: IGROV-1
[7] = test system: KM12
[8] = test system: LOX IMVI
[9] = test system: M14
[10] = test system: Malme-3M
[11] = test system: OVCAR-3
[12] = test system: OVCAR-5
[13] = test system: OVCAR-8
[14] = test system: SK-OV-3
[15] = test system: SNB-19
[16] = test system: SW-620
[17] = test system: TK-10
[18] = test system: U-251
[19] = test system: UACC-62
[20] = test system: NCI-H23

Compound	GI50 [1]	GI50 [2]	GI50 [3]	GI50 [4]	GI50 [5] [µM]	GI50 [6]	GI50 [7]	GI50 [8]	GI50 [9]	GI50 [10]	GI50 [11]	GI50 [12]	GI50 [13]	GI50 [14]	GI50 [15]	GI50 [16]	GI50 [17]	GI50 [18]	GI50 [19]	GI50 [20]
CNC(=S)N/N=C(\C)c1nc2cccnc2[nH]1	31.1 µM (inactive)	24.4 µM (inactive)	33.5 µM (inactive)	47 µM (inactive)	29.2	62.7 µM (inactive)	46.6 µM (inactive)	43.6 µM (inactive)	45.2 µM (inactive)	> 70.5 µM (inactive)	18.6 µM (inactive)	30.8 µM (inactive)	48.9 µM (inactive)	31.8 µM (inactive)	> 53.8 µM (inactive)	52.8 µM (inactive)	32.5 µM (inactive)	39.8 µM (inactive)	6.34 µM (inactive)	–
Oc1ccc(C(=C(Br)c2ccccc2)c2ccc(O)cc2)cc1	4.4 µM (inactive)	7.52 µM (inactive)	3.73 µM (inactive)	11.5 µM (inactive)	3.72	4.45 µM (inactive)	3.61 µM (inactive)	4.08 µM (inactive)	4.15 µM (inactive)	5.52 µM (inactive)	3.15 µM (inactive)	17.3 µM (inactive)	6.58 µM (inactive)	5.01 µM (inactive)	5.15 µM (inactive)	3.57 µM (inactive)	13.8 µM (inactive)	4.51 µM (inactive)	8.47 µM (inactive)	10.4 µM (inactive)
CS(=O)(=O)OCCCNCCCOS(C)(=O)=O	741 µM (inactive)	262 µM (inactive)	1730 µM (inactive)	1810 µM (inactive)	1460	2110 µM (inactive)	2080 µM (inactive)	569 µM (inactive)	753 µM (inactive)	1590 µM (inactive)	2630 µM (inactive)	2130 µM (inactive)	1650 µM (inactive)	1550 µM (inactive)	1270 µM (inactive)	1140 µM (inactive)	2020 µM (inactive)	893 µM (inactive)	393 µM (inactive)	904 µM (inactive)
COC(=O)c1sc(=O)n(-c2ccccc2)c1SCc1ccccc1	> 100 µM (inactive)	> 100 µM (inactive)	> 100 µM (inactive)	> 100 µM (inactive)	> 100	> 100 µM (inactive)	> 100 µM (inactive)	> 100 µM (inactive)	> 100 µM (inactive)	> 100 µM (inactive)	> 100 µM (inactive)	> 100 µM (inactive)	> 100 µM (inactive)	> 100 µM (inactive)	> 100 µM (inactive)	> 100 µM (inactive)	> 100 µM (inactive)	> 100 µM (inactive)	> 100 µM (inactive)	> 100 µM (inactive)
